Test results taken from ChEMBL document CHEMBL1201862, “PubChem BioAssay data set” (2004).
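Compound exposure: 48 hours, 5 concentrations, 96-well plates. GI50 marks 50% less growth.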 Calls of active or inactive are those of the source. Cut-off read from the data, not from the text of the source: active = GI50 up to about 1.1 µM and inactive = higher.

Experiments:
Experiment in all cases: NCI anticancer screen, dose series, 48 h
[1] = test system: MOLT-4
[2] = test system: NCI/ADR-RES
[3] = test system: SK-MEL-5
[4] = test system: HCT-15
[5] = test system: HCT-116
[6] = test system: BT-549
[7] = test system: SF-295
[8] = test system: MDA-MB-435
[9] = test system: 786-0
[10] = test system: KM12
[11] = test system: SK-MEL-2
[12] = test system: HCC 2998
[13] = test system: OVCAR-8
[14] = test system: DU-145
[15] = test system: SK-OV-3
[16] = test system: HT-29
[17] = test system: LOX IMVI
[18] = test system: SF-268
[19] = test system: RXF 393

Compound | GI50 [1] | GI50 [2] | GI50 [3] | GI50 [4] [µM] | GI50 [5] | GI50 [6] | GI50 [7] | GI50 [8] | GI50 [9] | GI50 [10] | GI50 [11] | GI50 [12] | GI50 [13] | GI50 [14] | GI50 [15] | GI50 [16] | GI50 [17] | GI50 [18] | GI50 [19]
C=CCn1cnc2c(O)nc(Nc3ccccc3)nc21 | 12.8 µM (inactive) | > 100 µM (inactive) | > 100 µM (inactive) | > 100 | > 100 µM (inactive) | > 100 µM (inactive) | > 100 µM (inactive) | > 100 µM (inactive) | > 100 µM (inactive) | > 100 µM (inactive) | > 100 µM (inactive) | > 100 µM (inactive) | > 100 µM (inactive) | > 100 µM (inactive) | > 100 µM (inactive) | > 100 µM (inactive) | > 100 µM (inactive) | > 100 µM (inactive) | 
O=c1[nH]nc(Cc2ccccc2)n1/N=C/c1c(O)ccc2ccccc12 | 26.4 µM (inactive) | 20.1 µM (inactive) | 18.6 µM (inactive) | 51.6 | 20.2 µM (inactive) | 82.4 µM (inactive) | 26.9 µM (inactive) | 29.2 µM (inactive) | 16.7 µM (inactive) | 19.7 µM (inactive) | 38.1 µM (inactive) | 33.4 µM (inactive) | 21 µM (inactive) | 57 µM (inactive) |  | 28.4 µM (inactive) | 54 µM (inactive) | 24.6 µM (inactive) | 22.3 µM (inactive)
Cc1oc2c(c1C)S(=O)(=O)C(C#N)C(c1ccccc1)N2 (stereo not given) | 20.6 µM (inactive) | 30.8 µM (inactive) | 32.4 µM (inactive) | 38.7 | 50 µM (inactive) | 45.4 µM (inactive) | 78.9 µM (inactive) | 34.5 µM (inactive) | 40.9 µM (inactive) | 50.4 µM (inactive) | 61.8 µM (inactive) | 53.8 µM (inactive) | 40.4 µM (inactive) | 80.7 µM (inactive) | 86.5 µM (inactive) | 67.6 µM (inactive) | 43.8 µM (inactive) | 56 µM (inactive) | 
COc1ccc(C2C(C#N)=C(S)N(C3OC(COC(C)=O)C(OC(C)=O)C(OC(C)=O)C3OC(C)=O)C(c3ccccc3)=C2C(C)=O)cc1 (stereo not given) | 64.4 µM (inactive) | > 100 µM (inactive) | 53.7 µM (inactive) | > 100 | > 100 µM (inactive) | > 100 µM (inactive) | > 100 µM (inactive) | 33.6 µM (inactive) | > 100 µM (inactive) | > 100 µM (inactive) | > 100 µM (inactive) | > 100 µM (inactive) | > 100 µM (inactive) | > 100 µM (inactive) |  | > 100 µM (inactive) | > 100 µM (inactive) | > 100 µM (inactive) | 78.9 µM (inactive)
Cn1c2ccccc2c(=O)c2cccc(C(=O)NC(CCCNC(=N)N)C(=O)O)c21 (stereo not given) | > 100 µM (inactive) | 26.1 µM (inactive) | > 100 µM (inactive) | > 100 | > 100 µM (inactive) | > 100 µM (inactive) | > 100 µM (inactive) | > 100 µM (inactive) | > 100 µM (inactive) | > 100 µM (inactive) | > 100 µM (inactive) | > 100 µM (inactive) | > 100 µM (inactive) | > 100 µM (inactive) | > 100 µM (inactive) | > 100 µM (inactive) | > 100 µM (inactive) | > 100 µM (inactive) | 
